Experimental data published in ChEMBL document CHEMBL1151993, “Oxylipins from Dracontium loretense” (J Nat Prod, 2009).
The source made the active and inactive calls. No cut-off for these calls is given here.

Experiments:
PBMC [1] = experiment: Immunostimulatory activity in human PBMC assessed as reduction in cell proliferation at 100 uM after 48 hrs by [3H]thymidine incorporation assay relative to control; type: functional, cell-based
PBMC [2] = experiment: Cytotoxicity in human PBMC cells at 100 uM after 48 hrs; type: cell-based
PBMC [3] = experiment: Immunostimulatory activity in human PBMC assessed as cell activation at 10 uM after 48 hrs by [3H]thymidine incorporation assay relative to control; type: functional, cell-based

CCCCCCCC[C@@H](O)[C@H](O)/C=C/C(O)CCCCC(=O)O (relative stereo)
Activity (PBMC [1]): inactive | Activity (PBMC [2]): Toxic

CCCCCCCC[C@H](O)[C@H](O)/C=C/C(O)CCCCC(=O)O (relative stereo)
Activity (PBMC [3]): Active | Activity (PBMC [1]): inactive | Activity (PBMC [2]): Toxic

CCCCCCCC[C@H](O)[C@@H](O)[C@H](O)/C=C\CCCCC(=O)O (relative stereo)
Activity (PBMC [1]): inactive | Activity (PBMC [2]): Toxic

CC/C=C\C/C=C\[C@@H](O)[C@H](O)[C@@H](O)CCCCCCCC(=O)O (relative stereo)
Activity (PBMC [1]): inactive | Activity (PBMC [2]): Toxic
